Data on 20 compounds can be found in the supplement of paper PMC4862054.

Where “and” joins values, the source holds several entries; their conditions need not be identical. Equal entries are not always repeated.

Holding throughout (assay): normalised viability (% of control), CellTiter-Blue; higher = more viable cells (about 100 = DMSO control)
What all share (details): incubation time: 72 h
In general terms: Resazurin is reduced to fluorescent resorufin, in cell work by metabolically active cells.

Assay [1] concerns CAL-148. As for the experimental part: (§1)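 DSRT, CellTiter-Blue viability, 72 h incubation. Signal is normalised to DMSO and benzethonium chloride controls. Value is the normalised response at dose 8.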
Assay [2] has as its system CAL-51. As to the method:
as §1

Assay [3] has as its system CAL-85-1. As for the experimental part: as §1
For assay [4], the system named is DU-4475. As for the experimental part: as §1
In assay [5] the test system is HDQ-P1. As to the method: as §1
In assay [6] the test system is MDA-MB-453. As for the experimental part:
as §1

Assay [7] has as its system CAL-148. As to the method:
(§2)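 DSRT, CellTiter-Blue viability, 72 h incubation. Signal is normalised to DMSO and benzethonium chloride controls. Value is the normalised response at dose 6.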
The source holds these as a separate data set.

In assay [8] the test system is CAL-51. As for the experimental part:
as §2
This is another data set of the same source.

In assay [9] the test system is CAL-85-1. As for the experimental part:
as §2
The source holds these as a separate data set.

In assay [10] the test system is DU-4475. As for the experimental part: as §2
This is another data set of the same source.

Assay [11] has as its system HDQ-P1. As to the method: as §2
The source holds these as a separate data set.

The subject of assay [12] is MDA-MB-453. As to the method:
as §2
This is another data set of the same source.

As to `COc1cc(Nc2ncc(F)c(Nc3ccc4c(n3)NC(=O)C(C)(C)O4)n2)cc(OC)c1OC` [R406] (3000 nM), the normalised viability stood at 105% in the assay with CAL-148 [1]; 109% with CAL-51 [2]; 67.9% in the assay on CAL-85-1 [3]; 92.6% with DU-4475 [4]; 98.3% with HDQ-P1 [5]; 110% in the assay with MDA-MB-453 [6].

As for `CC(C)(C)c1cc(NC(=O)Nc2ccc(-c3cn4c(n3)sc3cc(OCCN5CCOCC5)ccc34)cc2)no1` [Quizartinib] (30 nM), the normalised viability turned out to be 103% in the assay on CAL-148 [7]; 101% with CAL-51 [8]; 97.2% in the assay with CAL-85-1 [9]; 109% in the assay with DU-4475 [10]; 53.4% with HDQ-P1 [11]; 102% with MDA-MB-453 [12].

With `O=C(c1ccc(OCCN2CCCCC2)cc1)c1c(-c2ccc(O)cc2)sc2cc(O)ccc12` [Raloxifene] (300 nM), the normalised viability was found to be 102% with CAL-148 [7]; 100% with CAL-51 [8]; 105% with CAL-85-1 [9]; 114% with DU-4475 [10]; 84.6% in the assay on HDQ-P1 [11]; 102% with MDA-MB-453 [12].

As to `O=c1[nH]cc(F)c(=O)[nH]1` [Fluorouracil] (3000 nM), the normalised viability in the assay with CAL-148 [1] came out at 65.6%; in the assay on CAL-51 [2] it was 87.9%; with CAL-85-1 [3], 62.6%; in the assay with DU-4475 [4], 81.6%; in the assay with HDQ-P1 [5], 87.8%; with MDA-MB-453 [6], 85.7%.

On to `C[C@@H]1C=C2C(=O)O[C@@H]3CC[C@H](C1)[C@]23O` [Galiellalactone] (15000 nM), for which the normalised viability with CAL-148 [1] is 52.8%; with CAL-51 [2], 124%; in the assay on CAL-85-1 [3], 14.1%; in the assay on DU-4475 [4], 126%; in the assay with HDQ-P1 [5], 75.3%; in the assay on MDA-MB-453 [6] it was 20.3%.

As to `CCOc1cc2ncc(C#N)c(Nc3ccc(OCc4ccccn4)c(Cl)c3)c2cc1NC(=O)/C=C/CN(C)C` [Neratinib] (300 nM), the normalised viability was found to be 101% in the assay with CAL-148 [1]; 88% with CAL-51 [2]; 121% in the assay on CAL-85-1 [3]; 87.2% in the assay on DU-4475 [4]; 122% in the assay with HDQ-P1 [5]; 79.9% in the assay with MDA-MB-453 [6].

In the case of `COc1cccc2c1C(=O)c1c(O)c3c(c(O)c1C2=O)C[C@@](O)(C(C)=O)C[C@@H]3O[C@H]1C[C@H](N)[C@H](O)[C@H](C)O1` [Daunorubicin] (300 nM), the normalised viability in the assay with CAL-148 [1] is 48.7%; in the assay on CAL-51 [2], 31.2%; in the assay with CAL-85-1 [3], 53.8%; with DU-4475 [4], 33.6%; in the assay with HDQ-P1 [5], 52.7%; in the assay on MDA-MB-453 [6] it was 76.1%.

For the compound `O=c1[nH]c(=O)n([C@H]2C[C@H](O)[C@@H](CO)O2)cc1F` [Floxuridine] (300 nM), the normalised viability with CAL-148 [7] turned out to be 55.2%; with CAL-51 [8] it was 35%; in the assay with CAL-85-1 [9], 58.7%; with DU-4475 [10], 76%; with HDQ-P1 [11] it was 78.8%; in the assay with MDA-MB-453 [12], 90.8%.

Consider `CN1CCN(c2ccc3nc(-c4c(N)c5c(F)cccc5[nH]c4=O)[nH]c3c2)CC1` [Dovitinib] (3000 nM), for which the normalised viability with CAL-148 [1] came to 90.2%; with CAL-51 [2] it was 109%; in the assay with CAL-85-1 [3] it was 86.9%; in the assay on DU-4475 [4], 87.9%; with HDQ-P1 [5] it was 87.4%; in the assay on MDA-MB-453 [6], 93.4%.

For the compound `c1ccc(C2CN3CCSC3=N2)cc1` (centres undefined) [Tetramisole] (3000 nM), the normalised viability was 109% in the assay on CAL-148 [1]; 101% with CAL-51 [2]; 93.5% in the assay on CAL-85-1 [3]; 95.4% in the assay on DU-4475 [4]; 101% in the assay on HDQ-P1 [5]; 116% in the assay on MDA-MB-453 [6].

As for `CS(=O)(=O)CCNCc1ccc(-c2ccc3ncnc(Nc4ccc(OCc5cccc(F)c5)c(Cl)c4)c3c2)o1` [Lapatinib] (300 nM), the normalised viability is 87.1% and 91.6% with CAL-148 [7]; 112% and 98.5% in the assay with CAL-51 [8]; 89.5% and 86.2% in the assay on CAL-85-1 [9]; 87.4% and 108% with DU-4475 [10]; 42.9% and 43.1% with MDA-MB-453 [12].

On to `C[C@@]1(C(=O)Nc2ccc(F)nc2)CCCN1c1nc(Nc2cc(C3CC3)n[nH]2)c2cccn2n1` (3000 nM), for which the normalised viability with CAL-148 [1] worked out at 42.9%; with CAL-51 [2], 31.4%; with CAL-85-1 [3], 38.1%; with DU-4475 [4] it was 14.8%; with HDQ-P1 [5], 25.6%; in the assay with MDA-MB-453 [6] it was 65.4%.

For the compound `CC[C@@]1(O)C(=O)OCc2c1cc1n(c2=O)Cc2cc3ccccc3nc2-1` [Camptothecin] (1500 nM), the normalised viability amounted to 1.27% in the assay on CAL-148 [1]; 4.85% in the assay on CAL-51 [2]; 25.1% in the assay with CAL-85-1 [3]; 0.88% in the assay with DU-4475 [4]; 31.6% in the assay on HDQ-P1 [5]; 21.5% in the assay on MDA-MB-453 [6].

Take `COC1=CC(c2cc3ccccc3[nH]2)=N/C1=C\c1[nH]c(C)cc1C` [Obatoclax] (3000 nM): the normalised viability came out at 59.6% with CAL-148 [1]; 38.5% with CAL-51 [2]; 31.2% in the assay on CAL-85-1 [3]; 78.5% in the assay on DU-4475 [4]; 39.3% in the assay with HDQ-P1 [5]; 33.4% with MDA-MB-453 [6].

With `CCCC(CCC)C(=O)O` [Valproic acid] (3000 nM), the normalised viability in the assay with CAL-148 [1] turned out to be 104%; in the assay with CAL-51 [2], 103%; with CAL-85-1 [3], 90%; with DU-4475 [4], 88%; with HDQ-P1 [5] it was 112%; in the assay with MDA-MB-453 [6], 103%.

For `O=P(O)(NCCCl)NCCCl` [Ifosfamide mustard] (3000 nM), the normalised viability in the assay with CAL-148 [1] came to 100%; with CAL-51 [2], 108%; in the assay on CAL-85-1 [3], 96.5%; in the assay on DU-4475 [4], 104%; in the assay with HDQ-P1 [5] it was 106%; in the assay on MDA-MB-453 [6], 114%.

With `C#Cc1cccc(Nc2ncnc3cc(OC)c(OCCCCCCC(=O)NO)cc23)c1` [CUDC-101] (3000 nM), the normalised viability is 11.9% with CAL-148 [1]; 68% with CAL-51 [2]; 4.33% with CAL-85-1 [3]; 35% in the assay on DU-4475 [4]; 41.6% in the assay on HDQ-P1 [5]; 4.71% with MDA-MB-453 [6].

On to `CC(C)(C)c1cc(NC(=O)Nc2ccc(-c3cn4c(n3)sc3cc(OCCN5CCOCC5)ccc34)cc2)no1` [Quizartinib] (300 nM), for which the normalised viability was found to be 102% in the assay on CAL-148 [1]; 102% in the assay on CAL-51 [2]; 106% in the assay on CAL-85-1 [3]; 98.5% with DU-4475 [4]; 103% in the assay with HDQ-P1 [5]; 110% with MDA-MB-453 [6].

On to `COc1ncc(-c2ccc3nccc(-c4ccnnc4)c3c2)cc1NS(=O)(=O)c1ccc(F)cc1F` (300 nM), for which the normalised viability in the assay on CAL-148 [1] was determined as 6.61%; in the assay on CAL-51 [2] it was 6.4%; with CAL-85-1 [3], 17.9%; in the assay with DU-4475 [4], 37.8%; in the assay on HDQ-P1 [5], 21.2%; in the assay on MDA-MB-453 [6], 4.39%.

For the compound `COc1c(C)cnc(Cn2cnc3c(Cl)nc(N)nc32)c1C` [BIIB021] (3000 nM), the normalised viability in the assay on CAL-148 [1] was 17%; with CAL-51 [2], 10.2%; with CAL-85-1 [3], 22.9%; with DU-4475 [4], -0.3%; in the assay on HDQ-P1 [5] it was 33%; with MDA-MB-453 [6] it was 6.99%.
